Assay results reported in patent US12121514B2, “Nonselective metabotropic glutamate receptor activators for treatment of attention deficit disorder and 22Q syndrome” (THE CHILDREN'S HOSPITAL OF PHILADELPHIA, priority 2015, dated 2024).

System: adolescent subjects with ADHD and at least one genetic alteration in an mGluR network gene
Assay: Vanderbilt ADHD score (items 1-18, parent), Phase Ib trial of NFC-1
Assay type: in vivo, human
Conditions: relative to pre-study (enrollment) baseline
Description: The Vanderbilt Rating Scale is a measure that can be completed by parents or teachers (separate forms, see Vanderbilt Rating Scale Parents and Vanderbilt Rating Scale Teachers). The Vanderbilt scale rates the child's behavior on items such as attention, finishing tasks, hyperactivity, difficulty waiting, and measures of conduct or oppositional defiant disorders—as well as measures of overall school performance and interactions with others. The first 18 items on the Vanderbilt scale correspond to those of the ADHD Rating Scale IV above while the Vanderbilt scale also includes items 19-47 related to other mental disorders including ODD (items 19-26), conduct disorder (items 27-40), anxiety (items 41, 42, and 47), and depression (items 43-46). Each of the behavioral assessment items on the Vanderbilt Scale are rated 0, 1, 2, or 3, with 0=never occurring; 1=occasionally, 2=often, and 3=very often. Thus, the ADHD Rating Scale IV, ADHD Rating Scale V, and items 1-18 of the Vanderbilt Rating Scale are equivalent scales, while additional items on the Vanderbilt Scale assess co-morbid phenotypes and disorders.
Each of the items are rated on a scale of 0, 1, 2, or 3, with 0=never; 1=occasionally, 2=often, and 3=very often. A total score of 0 to 54 is computed based on the answers to the 18 questions.
As used herein an “ADHD rating scale score,” “ADHD score” or “Vanderbilt ADHD score” are used interchangeably to refer to the computed score of the 18 items of the ADHD Rating Scale IV or V or the first 18 items of the Vanderbilt Rating Scale in any of their associated versions, e.g., for parent, teacher, or clinician to complete, and for a pediatric subject or adult subject. Clinical trials may assess the impact of drug or placebo on the ADHD score or Vanderbilt ADHD score (i.e. the score of 0 to 54 based on the first 18 items in the ADHD or Vanderbilt rating scale). In some cases, results of a clinical trial population may be analyzed by comparing the average score or a percentage change in score over time of administration of drug.
An open-label Phase Ib clinical trial was initiated to investigate the safety, pharmacokinetics and efficacy of NFC-1 (fasoracetam monohydrate) in adolescent subjects between the ages of 12 and 17 previously diagnosed with ADHD who also had at least one genetic alteration in an mGluR network gene.
Dose-escalation phase of the trial followed the PK and initial safety assessment and ran over a 5-week period. During week 1, all subjects were administered placebo capsules twice daily. After one week of placebo treatment, patients were started on 50 mg bid NFC-1 for 1 week. If safety and responsiveness data from prior dose level of fasoracetam indicated it was appropriate, subjects were then escalated to the next higher dose (100, 200, or 400 mg). […] Of the 30 trial subjects, 3 received a maximum dose of 100 mg, 9 received a maximum dose of 200 mg, and the remaining 18 received a maximum dose of 400 mg.
All efficacy assessments, except actigraphy, were made at study enrollment (“enrollment baseline”) and again, including actigraphy, once-per-week for the placebo week (“week 1” or “placebo baseline”) and at each of the 4 weeks of NFC-1 treatment. These efficacy measures include items 1-18 of the Vanderbilt scale assessing symptoms related to inattentiveness and hyperactivity-impulsiveness as well as additional questions 19-47 of the Vanderbilt scale assessing other behavioral symptoms (conducted by parent), actigraphy for quantitative measurement of activity, Quotient® ADHD test for objective measurement of micro-motion and shifts in attention state, PERMP-Math test, and CGI-I and CGI-S for assessment of global functioning. […]

[1] = Tier 1, Week 5, up to 400 mg bid
[2] = Tier 2, Week 3, up to 100 mg bid
[3] = Tier 2, Week 4, up to 200 mg bid
[4] = Tier 2, Week 5, up to 400 mg bid
[5] = Tier 3, Week 3, up to 100 mg bid
[6] = Tier 3, Week 4, up to 200 mg bid
[7] = Tier 3, Week 5, up to 400 mg bid

O=C1CC[C@H](C(=O)N2CCCCC2)N1 [NFC-1, fasoracetam monohydrate]
Percent of subjects with improvement in Vanderbilt ADHD score (at least 25% decrease) (Tier 1, Week 4, up to 200 mg bid): 88%
Percent of subjects completing the dose escalation to 400 mg bid that show improvement in Vanderbilt ADHD scores (at least 25% decrease) (Tier 1, Week 5, 400 mg bid): 89%
Percent of subjects completing the dose escalation to 400 mg bid that show robust improvement in Vanderbilt ADHD scores (at least 40% decrease) (Tier 1, Week 5, 400 mg bid): 67%
Percent of subjects demonstrating robust improvement in Vanderbilt ADHD score (at least 40% decrease) [1]: 63%
Percent of subjects with improvement in Vanderbilt ADHD score (at least 25% decrease) [1]: 75%
Percent of subjects completing the dose escalation to 400 mg bid that show improvement in Vanderbilt ADHD scores (at least 25% decrease) (Tier 2, Week 2, 50 mg bid): 20%
Percent of subjects completing the dose escalation to 400 mg bid that show robust improvement in Vanderbilt ADHD scores (at least 40% decrease) (Tier 2, Week 2, 50 mg bid): 20%
Percent of subjects demonstrating robust improvement in Vanderbilt ADHD score (at least 40% decrease) (Tier 2, Week 2, 50 mg bid): 14%
Percent of subjects with improvement in Vanderbilt ADHD score (at least 25% decrease) (Tier 2, Week 2, 50 mg bid): 29%
Percent of subjects completing the dose escalation to 400 mg bid that show improvement in Vanderbilt ADHD scores (at least 25% decrease) (Tier 2, Week 3, 100 mg bid): 20%
Percent of subjects completing the dose escalation to 400 mg bid that show robust improvement in Vanderbilt ADHD scores (at least 40% decrease) (Tier 2, Week 3, 100 mg bid): 0%
Percent of subjects demonstrating robust improvement in Vanderbilt ADHD score (at least 40% decrease) [2]: 0%
Percent of subjects with improvement in Vanderbilt ADHD score (at least 25% decrease) [2]: 14%
Percent of subjects completing the dose escalation to 400 mg bid that show improvement in Vanderbilt ADHD scores (at least 25% decrease) (Tier 2, Week 4, 200 mg bid): 20%
Percent of subjects completing the dose escalation to 400 mg bid that show robust improvement in Vanderbilt ADHD scores (at least 40% decrease) (Tier 2, Week 4, 200 mg bid): 20%
Percent of subjects demonstrating robust improvement in Vanderbilt ADHD score (at least 40% decrease) [3]: 14%
Percent of subjects with improvement in Vanderbilt ADHD score (at least 25% decrease) [3]: 43%
Percent of subjects completing the dose escalation to 400 mg bid that show improvement in Vanderbilt ADHD scores (at least 25% decrease) (Tier 2, Week 5, 400 mg bid): 80%
Percent of subjects completing the dose escalation to 400 mg bid that show robust improvement in Vanderbilt ADHD scores (at least 40% decrease) (Tier 2, Week 5, 400 mg bid): 20%
Percent of subjects demonstrating robust improvement in Vanderbilt ADHD score (at least 40% decrease) [4]: 29%
Percent of subjects with improvement in Vanderbilt ADHD score (at least 25% decrease) [4]: 86%
Percent of subjects completing the dose escalation to 400 mg bid that show improvement in Vanderbilt ADHD scores (at least 25% decrease) (Tier 3, Week 2, 50 mg bid): 33%
Percent of subjects completing the dose escalation to 400 mg bid that show robust improvement in Vanderbilt ADHD scores (at least 40% decrease) (Tier 3, Week 2, 50 mg bid): 33%
Percent of subjects demonstrating robust improvement in Vanderbilt ADHD score (at least 40% decrease) (Tier 3, Week 2, 50 mg bid): 50%
Percent of subjects with improvement in Vanderbilt ADHD score (at least 25% decrease) (Tier 3, Week 2, 50 mg bid): 50%
Percent of subjects completing the dose escalation to 400 mg bid that show improvement in Vanderbilt ADHD scores (at least 25% decrease) (Tier 3, Week 3, 100 mg bid): 0%
Percent of subjects completing the dose escalation to 400 mg bid that show robust improvement in Vanderbilt ADHD scores (at least 40% decrease) (Tier 3, Week 3, 100 mg bid): 0%
Percent of subjects demonstrating robust improvement in Vanderbilt ADHD score (at least 40% decrease) [5]: 40%
Percent of subjects with improvement in Vanderbilt ADHD score (at least 25% decrease) [5]: 40%
Percent of subjects completing the dose escalation to 400 mg bid that show improvement in Vanderbilt ADHD scores (at least 25% decrease) (Tier 3, Week 4, 200 mg bid): 0%
Percent of subjects completing the dose escalation to 400 mg bid that show robust improvement in Vanderbilt ADHD scores (at least 40% decrease) (Tier 3, Week 4, 200 mg bid): 0%
Percent of subjects demonstrating robust improvement in Vanderbilt ADHD score (at least 40% decrease) [6]: 40%
Percent of subjects with improvement in Vanderbilt ADHD score (at least 25% decrease) [6]: 40%
Percent of subjects completing the dose escalation to 400 mg bid that show improvement in Vanderbilt ADHD scores (at least 25% decrease) (Tier 3, Week 5, 400 mg bid): 67%
Percent of subjects completing the dose escalation to 400 mg bid that show robust improvement in Vanderbilt ADHD scores (at least 40% decrease) (Tier 3, Week 5, 400 mg bid): 33%
Percent of subjects demonstrating robust improvement in Vanderbilt ADHD score (at least 40% decrease) [7]: 50%
Percent of subjects with improvement in Vanderbilt ADHD score (at least 25% decrease) [7]: 75%
